Source: the RepoRT retention time repository (doi:10.1038/sdata.2014.29)

Assay: RP, Waters ACQUITY UPLC HSS T3, 150 × 2 mm, 1.7 µm, 30 °C, 0.4 mL/min, estimated dead time 0.75 min; A: water + 0.2% formic acid; B: 2% water + 98% acetonitrile + 0.2% formic acid; gradient (min/%B) 0/0 2.5/0 7.5/10 10/100 12/100 18/0 25/0
Conditions: stereoisomer not certain

Compound | LC retention time [min]
O=C(O)C(=O)[C@H](O)COP(=O)(O)O [(R)-3-hydroxy-2-oxo-4-phosphonooxybutanoic acid] | 9.3
O=C(O)C=Cc1ccc(O)c(OC2OC(CO)C(O)C(O)C2O)c1 (stereo not given) [Caffeic acid 3-glucoside] | 8.96
O=C(O)[C@H](O)[C@@H](O)[C@H](O)[C@H](O)COP(=O)(O)O [6-phospho-D-gluconic acid] | 1.55
O=C(O)c1ccc(O)cc1 [4-hydroxybenzoic acid] | 9.88
O=C(O)CCCCC1CCSS1 [(R)-lipoic acid] | 2.28
OCC1OC(OC2(COC3(CO)OC(CO)C(O)C3O)OC(CO)C(O)C2O)C(O)C(O)C1O (stereo not given) [1-kestose] | 1.88
NC(=O)C[C@H](N)C(=O)O [L-asparagine] | 1.48
O=C[C@H](O)[C@H](O)CO [D-erythrose] | 1.67
O=C(O)/C=C/c1ccc(O[C@@H]2O[C@H](CO)[C@@H](O)[C@H](O)[C@H]2O)cc1 [4-O-beta-D-glucosyl-4-coumaric acid] | 9.11
N#CCC(N)C(=O)O (stereo not given) [3-cyanoalanine] | 1.51
Nc1ncnc2c1ncn2[C@@H]1O[C@H](CSCC[C@H]([NH3+])C(=O)[O-])[C@@H](O)[C@H]1O [S-adenosyl-L-homocysteine] | 1.92
O=C(O)CCC(=O)C(=O)O [2-oxoglutaric acid] | 3.04
O=C(O)CCCCCCCC(=O)O [azelaic acid] | 9.61
O=C(O)c1ccco1 [2-furoic acid] | 4.46
O=C(COP(=O)(O)O)Cc1cnc[nH]1 [3-(imidazol-4-yl)-2-oxopropyl dihydrogen phosphate] | 2.09
CC(=O)OC1CC(C)C(C=O)C2(O)C1C(C)(C)CC2(C)C=O (stereo not given) [botrydial] | 13.5
O=C(O)C1OC(O)C(O)C(O)C1O (stereo not given) [Glucuronic Acid] | 1.61
O=C(O)[C@H](O)[C@@H](O)[C@H](O)[C@H](O)CO [D-gluconic acid] | 1.61

Compound | LC retention time [min]
C=CC#CC#CC1=CC=C(C#CC)SS1 [thiarubrine A] | 1.97
O=C(O)C=Cc1ccc(O)cc1 [4-coumaric acid] | 8.99
CC[C@H](C)[C@H](N)C(=O)O [L-isoleucine] | 5.34
CC1(C)SC2C(NC(=O)C(C(=O)O)c3ccccc3)C(=O)N2C1C(=O)O (stereo not given) [carbenicillin] | 1.73
O=C(O)[C@H](O)[C@@H](O)[C@H](O)CO [D-xylonic acid] | 1.69
CC(C=CC1(O)C(C)=CC(=O)CC1(C)C)=CC(=O)O (single isomer, unassigned; (+)) [(+)-abscisic acid] | 10.1
OCC=Cc1ccc(O)cc1 [4-hydroxycinnamyl alcohol] | 1.62
O=C1CC[C@@H](C(=O)O)N1 [5-oxo-L-proline] | 4.72
O=C(C=Cc1ccc(O)c(O)c1)OC1CC(O)(C(=O)O)CC(O)C1O (stereo not given) [chlorogenic acid] | 9.09
O=C1O[C@H](CO)[C@@H](O)[C@H](O)[C@H]1O [D-glucono-1,5-lactone] | 2.02
OCC1OC(OC2OC(CO)C(O)C(O)C2O)C(O)C(O)C1O (stereo not drawn) [alpha,alpha-trehalose] | 1.58
C[C@H]([NH3+])C(=O)[O-] [L-alanine] | 1.44
N[C@@H](CC(=O)O)C(=O)O [L-aspartic acid] | 1.53
Nc1ncnc2c1ncn2C1OC(CO)C(O)C1O (stereo not given) [adenosine] | 6.01
CC(C)CC(=O)C(=O)O [4-methyl-2-oxopentanoic acid] | 9.46
C[C@](O)(CO)[C@H](O)COP(=O)(O)O [2-C-methyl-D-erythritol 4-(dihydrogen phosphate)] | 1.64
NC(=O)NC1NC(=O)NC1=O (stereo not given) [allantoin] | 1.76
CC(=O)OC(C)(C)C1CCC2(C)COC3(C)C=COC23C1 (stereo not given) [AC1L9CQ2] | 11.6

The next lines start with the values.

LC retention time [min] | Compound
1.43 | NC(Cc1cnc[nH]1)C(=O)O (stereo not given) [histidine]
1.57 | O=C([O-])C(O)C(O)C(O)C(O)C(=O)[O-] (stereo not given) [glucarate(1-)]
2.64 | O=C(O)CC(=O)O [malonic acid]
8.87 | NC(Cc1c[nH]c2ccccc12)C(=O)O (stereo not given) [tryptophan]
1.66 | COc1c2ccoc2c(OC)c2oc(=O)ccc12 [isopimpinellin]
1.64 | O[C@@H]1c2c(sc3ccccc23)C=C[C@@H]1O (relative stereo) [cis-1,2-dihydroxy-1,2-dihydrodibenzothiophene]
9.3 | O=C(CO)COP(=O)(O)O [glycerone phosphate]
1.62 | NC(CCC(=O)O)C(=O)O (stereo not given) [glutamic acid]
4.43 | CC(=O)NC=CSC1=C(C(=O)O)N2C(=O)C(C(C)OS(=O)(=O)O)C2C1 (stereo not given) [epithienamycin E]
1.47 | O=P([O-])([O-])OP(=O)([O-])[O-] [diphosphate(4-)]
4.71 | O=C(O)c1nc2[nH]c(=O)[nH]c(=O)c2[nH]1 [xanthine-8-carboxylic acid]
10.7 | COC(=O)[C@@H](N)Cc1ccc(O)cc1 [methyl L-tyrosinate]
2.44 | O=C(O)CC(O)C(=O)O (stereo not given) [malic acid]
4.46 | O=C(O)C=C(CC(=O)O)C(=O)O [cis-aconitic acid]
10.5 | C#CC1(OC(C)=O)CCC2C3CCC4=CC(=O)CCC4C3CCC21C (stereo not given) [norethindrone acetate]
1.81 | O=P(O)(O)OCC1OC(CO)(OC2OC(CO)C(O)C(O)C2O)C(O)C1O (stereo not given) [sucrose 6(F)-phosphate]
1.58 | O=C(O)C1OC(OC2C(C(=O)O)OC(O)C(O)C2O)C(O)C(O)C1O (stereo not given) [digalacturonic acid]

LC retention time [min] | Compound
5.35 | O=C(O)CCC(=O)O [succinic acid]
3.02 | O=C(CO)CO [glycerone]
5.79 | O=c1ccn(C2OC(CO)C(O)C2O)c(=O)[nH]1 (stereo not given) [uridine]
2.46 | O=C(O)C=CC(=O)O [fumaric acid]
9.43 | O=C(O)CCCCCCC(=O)O [suberic acid]
2.79 | O=C(O)C1CCCCN1 (stereo not given) [pipecolic acid]
1.57 | C[N+](C)(C)CC(=O)[O-] [glycine betaine]
4.6 | CC(=O)C(=O)O [pyruvic acid]
1.68 | C=CC=C(O)C(=O)O [cis-2-hydroxypenta-2,4-dienoic acid]
11.8 | CCCCCCCCCCCCOCCOCCOCCOCCOCCO [pentaethylene glycol monododecyl ether]
1.9 | CS(=O)(=O)CCC(N)C(=O)O (stereo not given) [methionine sulfone]
1.92 | O=C(O)C(O)CO (stereo not given) [glyceric acid]
1.53 | O=P(O)(O)OC(CO)CO [glycerol 2-phosphate]
1.75 | O=c1[nH]cnc2nc[nH]c12 [hypoxanthine]
10.2 | CC1=CC2=CC(C)CC23OC(=C(C)C3=O)CC(C)(C)C=CC1=O (stereo not given) [jatrophone]
1.67 | CC(C(=O)[O-])=C(C)C(=O)[O-] [dimethylmaleate(2-)]
6.32 | Nc1nc2c(ncn2C2OC(CO)C(O)C2O)c(=O)[nH]1 (stereo not given) [guanosine]
